Values quoted from earlier work as cited in patent publication US7794750B2, “Controlled-release formulations, method of manufacture, and use thereof” (Mutual Pharmaceutical Company, Inc., priority 2008, dated 2010).
Counter-ions that a name gives are not always drawn.

Conditions: 25° C., pH of about 7

- aqueous solubility: 3290 µg/mL
SMILES: OCCOCCN1CCN(C2=Nc3ccccc3Sc3ccccc32)CC1 [Quetiapine fumarate, quetiapine fumarate]
